Test results from patent US20220306695A1, “COMPSTATIN ANALOGUES AND THEIR MEDICAL USES” (priority 2019, published 2022).
Where two headings read alike, the source gives them in different places. Starred links: 1 amine or outer side, 2 acyl side, 3 side chain; linkers in the order of their positions; H or OH if unused. Positions of bridges follow the written chain, without caps; N, C: chain ends. Non-standard residues stand in square brackets, D forms with d. Residues, ends and D or L forms follow the SMILES beside them. Groups on a side chain read outwards from the residue. *: point of attachment. Trp(1-Me) = Cn1cc(C[C@H](N)C(=O)O)c2ccccc21; Abu(4-yl) = O=C([C@H](CC[*:3])N[*:1])[*:2]; C18 diacid = O=C(O)CCCCCCCCCCCCCCCCC(=O)*; γGlu = O=C(O)[C@H](CCC(=O)[*:2])N[*:1]; AEEA = NCCOCCOCC(=O)O; Sar = CNCC(=O)O

What was measured:
Human C3 = molecular target: T1, Human C3 (Homo sapiens, UniProt P01024); experiment: Affinity measurement by surface plasmon resonance (SPR) with immobilized C3; assay type: binding; conditions: Table 7; immobilized C3, 25° C., pH 7.4
T1 construct: purchased Complement tech A1 13c (so in the source)
Procedure: Surface plasmon resonance (SPR) was used to characterize peptides with respect to their binding affinity (Kd) for C3. Human C3 (Complement tech cat #A1 13c) was immobilised on individual flow cells of CM5 sensor chips (GE Healthcare) using standard amine coupling to a density of approximately 3000 resonance units (RU) in a buffer consisting of 10 mM phosphate pH 7.4, 150 mM NaCl, 0.05% Tween20. For interaction experiments a multi-cycle experiment approach was used and performed using either a Biacore™ T200 or Biacore™ X100 instrument (GE Healthcare) at 25° C. Peptides were injected in increasing concentration series (5-8 different concentrations) for 60-120 s at a flow rate of 30 μL/min in a buffer consisting of 10 mM Tris buffer at pH 7.4, with 150 mM NaCl and 0.05% Tween20. This was followed by a dissociation period for up to 10 min. […] Sensorgrams were double-referenced (reference surface, blanks) prior to analysis of the kinetic profiles by globally fitting data to a 1:1 Langmuir binding model to obtain association and dissociation rates for calculation of the equilibrium dissociation constant Kd. Each peptide was tested at in at least 2 independent experiments.

[1] = test system: classical complement pathway; experiment: In vitro haemolysis assay (inhibition of classical complement pathway); assay type: cell-based, human
Outline: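 Serially diluted compound (9 points) was preincubated 15 min at room temperature with diluted human serum, titrated per batch to give 70-90% maximal haemolysis, in Tris/casein buffer pH 7.4 with Mg2+/Ca2+. Antibody-sensitized sheep erythrocytes were then added for 30 min at 37° C, and the reaction was stopped with EDTA. Haemolysis was read at A405, with IC50 from 4PL fit.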

[2] = Solubility test at 10 mg/mL (visual inspection and light scattering); assay type: physicochemical; conditions: for Solubility, Condition 1 Acetate pH 4: 10 mg/mL compound in 100 mM acetate pH 4; for Solubility, Condition 2 Acetate pH 5: 10 mg/mL compound in 100 mM acetate pH 5; for Solubility, Condition 3 Phosphate pH 6: 10 mg/mL compound in 100 mM phosphate pH 6; for Solubility, Condition 4 Phosphate pH 7: 10 mg/mL compound in 100 mM phosphate pH 7; for Solubility, Condition 5 Phosphate pH 7.5: 10 mg/mL compound in 100 mM phosphate pH 7.5
[3] = Table 3, human serum, sensitized sheep red blood cells, read-out: IC50[nM], in vitro analysis of inhibition of hemolysis
[4] = Table 4, valine 3 versus isoleucine 3 pairs, read-out: CP hemolysis IC50

| SMILES | Kd (Human C3) [nM] | Solubility by visual inspection and absorbance, condition 1, 2 and 3 ([2]; 10 mg/mL, acetate pH 4.0, acetate pH 5.0, phosphate pH 6.0, all exceeding 0.1 AU threshold) | Solubility by visual inspection and absorbance, condition 4 and 5 ([2]; 10 mg/mL, phosphate pH 7 and phosphate pH 7.5) | IC50 [1, 3] [nM] | IC50 [1, 4] [nM] | Solubility, Condition 1 Acetate pH 4 [2] | Solubility, Condition 2 Acetate pH 5 [2] | Solubility, Condition 3 Phosphate pH 6 [2] | Solubility, Condition 4 Phosphate pH 7 [2] | Solubility, Condition 5 Phosphate pH 7.5 [2] |
| --- | --- | --- | --- | --- | --- | --- | --- | --- | --- | --- |
| CC[C@H](C)[C@H](NC(C)=O)C(=O)N[C@H]1CSSC[C@@H](C(=O)N[C@H](C(=O)NCC(=O)N[C@@H](C)C(=O)N[C@@H](CCC(=O)O)C(=O)N[C@@H](CO)C(N)=O)[C@@H](C)O)NC(=O)[C@H](CCCNC(=N)N)NC(=O)[C@H](Cc2c[nH]cn2)NC(=O)[C@H](CCC(=O)O)NC(=O)CNC(=O)[C@H](Cc2c[nH]c3ccccc23)NC(=O)[C@H](CC(=O)O)NC(=O)[C@H](CCC(N)=O)NC(=O)[C@H](Cc2c[nH]c3ccccc23)NC(=O)[C@H]([C@@H](C)CC)NC1=O [Compound 15] (Ac-ICIWQDWGEHRCTGAES-NH2; disulfide 2-12) | 14 |  |  | < 100 | 47 | + (denotes solubility at the given condition, as determined by UV absorbance being less than 0.1 AU at 340 nm and the sample being clear when manually inspected.) | − (denotes lack of solubility at the given condition, as UV absorbance at 340 nm exceeds 0.1 AU and/or it is visibly turbid or contains particles.) | − (denotes lack of solubility at the given condition, as UV absorbance at 340 nm exceeds 0.1 AU and/or it is visibly turbid or contains particles.) | + (denotes solubility at the given condition, as determined by UV absorbance being less than 0.1 AU at 340 nm and the sample being clear when manually inspected.) | + (denotes solubility at the given condition, as determined by UV absorbance being less than 0.1 AU at 340 nm and the sample being clear when manually inspected.) |
| CC[C@H](C)[C@H](NC(C)=O)C(=O)N[C@H]1CSSC[C@@H](C(=O)N[C@H](C(=O)N[C@@H](CCC(=O)O)C(=O)NCC(=O)N[C@@H](CCC(=O)O)C(N)=O)[C@@H](C)O)NC(=O)[C@H](CCCNC(=N)N)NC(=O)[C@H](Cc2c[nH]cn2)NC(=O)[C@H](CCC(=O)O)NC(=O)CNC(=O)[C@H](Cc2c[nH]c3ccccc23)NC(=O)[C@H](CC(=O)O)NC(=O)[C@H](CCC(N)=O)NC(=O)[C@H](Cc2c[nH]c3ccccc23)NC(=O)[C@H]([C@@H](C)CC)NC1=O [Compound 24] (Ac-ICIWQDWGEHRCTEGE-NH2; disulfide 2-12) | 28 | cloudy | good conditions for solubility | < 100 | 90 | − (denotes lack of solubility at the given condition, as UV absorbance at 340 nm exceeds 0.1 AU and/or it is visibly turbid or contains particles.) | − (denotes lack of solubility at the given condition, as UV absorbance at 340 nm exceeds 0.1 AU and/or it is visibly turbid or contains particles.) | − (denotes lack of solubility at the given condition, as UV absorbance at 340 nm exceeds 0.1 AU and/or it is visibly turbid or contains particles.) | + (denotes solubility at the given condition, as determined by UV absorbance being less than 0.1 AU at 340 nm and the sample being clear when manually inspected.) | + (denotes solubility at the given condition, as determined by UV absorbance being less than 0.1 AU at 340 nm and the sample being clear when manually inspected.) |
| CC[C@H](C)[C@@H]1NC(=O)[C@@H](NC(=O)[C@H](Cc2ccccc2)NC(=O)[C@H](C)NC(=O)[C@H](CO)NC(=O)CNC(=O)[C@H](CCC(=O)O)NC(C)=O)CSSC[C@@H](C(=O)N(C)CC(=O)N[C@@H](CCC(=O)O)C(N)=O)NC(=O)[C@H](CCCNC(=N)N)NC(=O)[C@H](Cc2c[nH]cn2)NC(=O)[C@H](CCC(=O)O)NC(=O)CNC(=O)[C@H](Cc2c[nH]c3ccccc23)NC(=O)[C@H](CC(=O)O)NC(=O)[C@H](CCC(N)=O)NC(=O)[C@H](Cc2cn(C)c3ccccc23)NC1=O [Compound 53] (Ac-EGSAFCI[Trp(1-Me)]QDWGEHRC[Sar]E-NH2; disulfide 6-16) | 1.4 |  |  | < 100 |  | − (denotes lack of solubility at the given condition, as UV absorbance at 340 nm exceeds 0.1 AU and/or it is visibly turbid or contains particles.) | − (denotes lack of solubility at the given condition, as UV absorbance at 340 nm exceeds 0.1 AU and/or it is visibly turbid or contains particles.) | + (denotes solubility at the given condition, as determined by UV absorbance being less than 0.1 AU at 340 nm and the sample being clear when manually inspected.) | + (denotes solubility at the given condition, as determined by UV absorbance being less than 0.1 AU at 340 nm and the sample being clear when manually inspected.) | + (denotes solubility at the given condition, as determined by UV absorbance being less than 0.1 AU at 340 nm and the sample being clear when manually inspected.) |

Further lines, with some results ahead:

| Kd (Human C3) [nM] | Solubility by visual inspection and absorbance, condition 1, 2 and 3 ([2]; 10 mg/mL, acetate pH 4.0, acetate pH 5.0, phosphate pH 6.0, all exceeding 0.1 AU threshold) | Solubility by visual inspection and absorbance, condition 4 and 5 ([2]; 10 mg/mL, phosphate pH 7 and phosphate pH 7.5) | SMILES | IC50 [1, 3] [nM] | IC50 [1, 4] [nM] | Solubility, Condition 1 Acetate pH 4 [2] | Solubility, Condition 2 Acetate pH 5 [2] | Solubility, Condition 3 Phosphate pH 6 [2] | Solubility, Condition 4 Phosphate pH 7 [2] | Solubility, Condition 5 Phosphate pH 7.5 [2] |
| --- | --- | --- | --- | --- | --- | --- | --- | --- | --- | --- |
| 16 |  |  | CC[C@H](C)[C@@H]1NC(=O)[C@@H](NC(=O)[C@H](Cc2ccccc2)NC(=O)[C@H](CCC(=O)O)NC(=O)[C@H](CO)NC(C)=O)CCSC[C@@H](C(=O)N(C)CC(=O)N[C@@H](CCC(=O)O)C(=O)NCC(=O)N[C@@H](CCC(=O)O)C(=O)NCCOCCOCC(=O)NCCOCCOCC(=O)N[C@@H](CCCCNC(=O)CC[C@H](NC(=O)CNC(=O)CC[C@H](NC(=O)CCCCCCCCCCCCCCCCC(=O)O)C(=O)O)C(=O)O)C(N)=O)NC(=O)[C@H](CCCNC(=N)N)NC(=O)[C@H](Cc2c[nH]cn2)NC(=O)[C@H](CCC(=O)O)NC(=O)CNC(=O)[C@H](Cc2c[nH]c3ccccc23)NC(=O)[C@H](CC(=O)O)NC(=O)[C@H](CCC(N)=O)NC(=O)[C@H](Cc2cn(C)c3ccccc23)NC1=O [Compound 152] (Ac-SEF[Abu(4-yl)]I[Trp(1-Me)]QDWGEHRC[Sar]EGE[AEEA][AEEA]K([γGlu-Gly-γGlu-C18 diacid])-NH2; thioether 4-14) | < 100 |  |  |  |  |  |  |
| 3.4 |  |  | CC[C@H](C)[C@@H]1NC(=O)[C@@H](NC(=O)[C@H](Cc2ccccc2)NC(=O)[C@H](CCC(=O)O)NC(C)=O)CSCC[C@@H](C(=O)N[C@@H](CCC(=O)O)C(=O)NCC(=O)N[C@@H](CCC(=O)O)C(=O)N[C@@H](CCCCNC(=O)CC[C@H](NC(=O)CNC(=O)CC[C@H](NC(=O)CCCCCCCCCCCCCCCCC(=O)O)C(=O)O)C(=O)O)C(N)=O)NC(=O)[C@H](CCCNC(=N)N)NC(=O)[C@H](Cc2c[nH]cn2)NC(=O)[C@H](CCC(=O)O)NC(=O)CNC(=O)[C@H](Cc2c[nH]c3ccccc23)NC(=O)[C@H](CC(=O)O)NC(=O)[C@H](CCC(N)=O)NC(=O)[C@H](Cc2cn(C)c3ccccc23)NC1=O [Compound 161, Ac-EFA(1)I[1-Me-Trp]QDWGEHRhC(1)EGE-K([17-carboxy-heptadecanoyl][γGlu]G[γGlu])-NH2] (Ac-EFCI[Trp(1-Me)]QDWGEHR[Abu(4-yl)]EGEK([γGlu-Gly-γGlu-C18 diacid])-NH2; thioether 3-13) | < 100 |  |  |  |  |  |  |
| 6.5 |  |  | CC[C@H](C)[C@@H]1NC(=O)[C@@H](NC(=O)[C@H](Cc2ccccc2)NC(=O)[C@H](CCC(=O)O)NC(=O)[C@H](CO)NC(C)=O)CCSC[C@@H](C(=O)N(C)CC(=O)N[C@@H](CCC(=O)O)C(=O)NCC(=O)N[C@@H](CCC(=O)O)C(=O)NCCOCCOCC(=O)N[C@@H](CCC(=O)O)C(=O)N[C@@H](CO)C(=O)N[C@@H](CCCCNC(=O)CC[C@H](NC(=O)CNC(=O)CC[C@H](NC(=O)CCCCCCCCCCCCCCCCC(=O)O)C(=O)O)C(=O)O)C(N)=O)NC(=O)[C@H](CCCNC(=N)N)NC(=O)[C@H](Cc2c[nH]cn2)NC(=O)[C@H](CCC(=O)O)NC(=O)CN(C)C(=O)[C@H](Cc2c[nH]c3ccccc23)NC(=O)[C@H](CC(=O)O)NC(=O)[C@H](CCC(N)=O)NC(=O)[C@H](Cc2cn(C)c3ccccc23)NC1=O [Compound 166, Ac-SEFhC(1)I[1-Me-Trp]QDW[Sar]EHRA(1)[Sar]EGE[Peg3]ES-K([17-carboxy-heptadecanoyl][γGlu]G[γGlu])-NH2] (Ac-SEF[Abu(4-yl)]I[Trp(1-Me)]QDW[Sar]EHRC[Sar]EGE[AEEA]ESK([γGlu-Gly-γGlu-C18 diacid])-NH2; thioether 4-14) | < 100 |  |  |  |  |  |  |
